Measurements published in ChEMBL document CHEMBL1201862, “PubChem BioAssay data set” (2004).
The source made the active and inactive calls.

Legend:
[1] = HGIII-sPLA2 enzyme inhibition potency – biochemical, QFRET, IC50, dose response (AID 743457);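 note: green fluorescence rise as the enzyme cleaves BODIPY PC-A2 in liposomes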
[2] = microbe, parasite or virus in culture; assay type: functional; conditions: Mycobacterium tuberculosis
[3] = target: T1, Short transient receptor potential channel 4 (Mus musculus, UniProt Q9QUQ5); experiment: calcium entry via TRPC4 opening agents – cell-based, HEK293 TRPC4/mu-opioid, Fluo-4 calcium, dose response (AID 434937); assay type: functional
T1 sequence (Q9QUQ5 whole entry): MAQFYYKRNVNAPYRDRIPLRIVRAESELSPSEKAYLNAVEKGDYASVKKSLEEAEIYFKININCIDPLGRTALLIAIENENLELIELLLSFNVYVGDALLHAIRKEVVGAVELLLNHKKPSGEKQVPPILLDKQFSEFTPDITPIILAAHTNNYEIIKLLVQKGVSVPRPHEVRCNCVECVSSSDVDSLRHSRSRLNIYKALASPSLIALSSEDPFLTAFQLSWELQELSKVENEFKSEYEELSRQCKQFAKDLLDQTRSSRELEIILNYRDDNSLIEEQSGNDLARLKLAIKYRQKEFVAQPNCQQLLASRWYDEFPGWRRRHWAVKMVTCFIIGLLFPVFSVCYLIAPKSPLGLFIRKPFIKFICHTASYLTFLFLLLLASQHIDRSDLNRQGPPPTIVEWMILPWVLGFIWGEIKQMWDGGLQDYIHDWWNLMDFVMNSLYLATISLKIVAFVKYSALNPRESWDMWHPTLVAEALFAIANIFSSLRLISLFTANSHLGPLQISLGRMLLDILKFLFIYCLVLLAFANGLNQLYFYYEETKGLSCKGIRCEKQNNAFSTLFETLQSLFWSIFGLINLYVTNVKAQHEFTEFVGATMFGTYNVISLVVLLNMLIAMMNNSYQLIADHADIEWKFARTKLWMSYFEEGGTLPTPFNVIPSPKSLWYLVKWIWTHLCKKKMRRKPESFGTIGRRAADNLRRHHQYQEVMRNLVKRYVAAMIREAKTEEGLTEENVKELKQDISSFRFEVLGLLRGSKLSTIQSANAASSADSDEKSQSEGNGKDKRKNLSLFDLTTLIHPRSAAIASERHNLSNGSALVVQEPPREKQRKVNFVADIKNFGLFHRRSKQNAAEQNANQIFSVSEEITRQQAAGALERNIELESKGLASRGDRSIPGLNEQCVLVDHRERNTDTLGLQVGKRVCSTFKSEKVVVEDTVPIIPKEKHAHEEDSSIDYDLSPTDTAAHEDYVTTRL

Vero = experiment: cells; assay type: functional; conditions: Chlorocebus sabaeus
[4] = target: T2, High affinity choline transporter 1 (Homo sapiens, UniProt Q9GZV3); experiment: human choline transporter blockers, potency – cell-based, 5-point CRC, membrane potential dye, dose response (AID 504840); assay type: functional
T2 sequence (Q9GZV3 whole entry): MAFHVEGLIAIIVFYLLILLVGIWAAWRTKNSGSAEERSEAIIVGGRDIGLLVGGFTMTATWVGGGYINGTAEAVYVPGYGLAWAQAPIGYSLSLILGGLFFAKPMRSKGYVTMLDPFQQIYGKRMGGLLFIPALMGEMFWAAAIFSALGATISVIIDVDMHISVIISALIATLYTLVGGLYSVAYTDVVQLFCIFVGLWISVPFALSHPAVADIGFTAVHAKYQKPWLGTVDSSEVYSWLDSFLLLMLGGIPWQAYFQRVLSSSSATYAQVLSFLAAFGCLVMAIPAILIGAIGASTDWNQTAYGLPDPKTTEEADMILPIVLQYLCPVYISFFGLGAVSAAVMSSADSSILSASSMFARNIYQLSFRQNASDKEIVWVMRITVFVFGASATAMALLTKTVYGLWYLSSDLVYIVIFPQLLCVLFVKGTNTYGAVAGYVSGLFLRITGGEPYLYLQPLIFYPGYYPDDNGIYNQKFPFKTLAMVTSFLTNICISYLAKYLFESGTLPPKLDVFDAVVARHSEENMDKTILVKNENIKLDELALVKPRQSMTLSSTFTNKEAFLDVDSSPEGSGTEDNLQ

[5] = target: T3, Oxysterols receptor LXR-beta (Homo sapiens, UniProt P55055); assay type: functional, cell-based
T3 sequence (P55055 whole entry): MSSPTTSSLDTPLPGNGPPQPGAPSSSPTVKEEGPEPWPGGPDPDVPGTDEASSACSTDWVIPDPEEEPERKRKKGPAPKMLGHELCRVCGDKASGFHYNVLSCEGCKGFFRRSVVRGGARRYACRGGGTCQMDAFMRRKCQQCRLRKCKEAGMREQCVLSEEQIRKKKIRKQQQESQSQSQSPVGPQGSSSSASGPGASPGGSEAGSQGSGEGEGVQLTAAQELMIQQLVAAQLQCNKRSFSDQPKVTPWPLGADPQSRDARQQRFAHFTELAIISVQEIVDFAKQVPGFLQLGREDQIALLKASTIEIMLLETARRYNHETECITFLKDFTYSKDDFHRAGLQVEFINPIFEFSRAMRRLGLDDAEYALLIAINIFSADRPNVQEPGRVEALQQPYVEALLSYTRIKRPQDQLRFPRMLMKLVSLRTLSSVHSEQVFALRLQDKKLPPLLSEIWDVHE

[6] = target: T4, Ubiquitin carboxyl-terminal hydrolase BAP1 (Homo sapiens, UniProt Q92560); experiment: inhibition of BAP1 ubiquitin hydrolase activity – biochemical, dose response (AID 714); assay type: functional
T4 sequence (Q92560 whole entry): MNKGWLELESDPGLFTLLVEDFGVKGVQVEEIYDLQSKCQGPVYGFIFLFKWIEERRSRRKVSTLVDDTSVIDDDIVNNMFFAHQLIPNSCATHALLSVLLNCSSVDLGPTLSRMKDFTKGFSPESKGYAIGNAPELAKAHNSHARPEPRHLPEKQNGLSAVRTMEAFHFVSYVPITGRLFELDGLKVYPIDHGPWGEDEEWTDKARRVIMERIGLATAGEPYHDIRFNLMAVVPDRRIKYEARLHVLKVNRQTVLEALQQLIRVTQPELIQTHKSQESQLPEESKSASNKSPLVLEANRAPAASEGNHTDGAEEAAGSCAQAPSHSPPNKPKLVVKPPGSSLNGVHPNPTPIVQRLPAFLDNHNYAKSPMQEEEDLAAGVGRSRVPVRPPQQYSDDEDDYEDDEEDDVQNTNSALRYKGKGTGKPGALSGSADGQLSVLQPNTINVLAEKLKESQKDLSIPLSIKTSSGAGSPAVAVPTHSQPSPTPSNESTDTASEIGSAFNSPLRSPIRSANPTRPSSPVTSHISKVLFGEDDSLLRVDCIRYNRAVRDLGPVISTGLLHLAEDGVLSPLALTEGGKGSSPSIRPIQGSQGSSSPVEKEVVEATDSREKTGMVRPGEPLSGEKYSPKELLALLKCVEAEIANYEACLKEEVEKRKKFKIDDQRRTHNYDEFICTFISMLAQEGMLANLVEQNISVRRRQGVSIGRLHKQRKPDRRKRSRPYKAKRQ

[7] = target: T5, Tyrosine-protein phosphatase non-receptor type 7 (Homo sapiens, UniProt P35236); experiment: HePTP tyrosine phosphatase activity blockers – biochemical, absorbance, leukemia target, primary screen (AID 521); assay type: functional
T5 sequence (P35236 whole entry): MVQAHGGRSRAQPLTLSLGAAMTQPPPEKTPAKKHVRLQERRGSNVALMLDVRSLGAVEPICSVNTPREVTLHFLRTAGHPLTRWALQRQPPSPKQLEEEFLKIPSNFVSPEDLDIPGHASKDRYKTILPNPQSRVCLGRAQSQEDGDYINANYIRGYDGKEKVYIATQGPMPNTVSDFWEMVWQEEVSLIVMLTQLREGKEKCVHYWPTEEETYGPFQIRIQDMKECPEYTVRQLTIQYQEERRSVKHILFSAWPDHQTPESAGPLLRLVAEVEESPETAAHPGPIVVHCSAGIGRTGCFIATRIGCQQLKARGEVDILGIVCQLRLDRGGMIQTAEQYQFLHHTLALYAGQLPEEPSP

[8] = target: T6, Heat shock factor protein 1 (Mus musculus, UniProt P38532); experiment: decrease of HSF1-responsive luciferase luminescence – cell-based, NIH3T3, dose retest, confirmation (AID 2382); assay type: functional;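 note: NIH3T3 fibroblasts with HSF1-driven luciferase reporter stressed by proteasome inhibitor MG132; luminescence from HSF1-driven luciferase expression after 8 hours of MG132 stress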
T6 sequence (P38532 whole entry): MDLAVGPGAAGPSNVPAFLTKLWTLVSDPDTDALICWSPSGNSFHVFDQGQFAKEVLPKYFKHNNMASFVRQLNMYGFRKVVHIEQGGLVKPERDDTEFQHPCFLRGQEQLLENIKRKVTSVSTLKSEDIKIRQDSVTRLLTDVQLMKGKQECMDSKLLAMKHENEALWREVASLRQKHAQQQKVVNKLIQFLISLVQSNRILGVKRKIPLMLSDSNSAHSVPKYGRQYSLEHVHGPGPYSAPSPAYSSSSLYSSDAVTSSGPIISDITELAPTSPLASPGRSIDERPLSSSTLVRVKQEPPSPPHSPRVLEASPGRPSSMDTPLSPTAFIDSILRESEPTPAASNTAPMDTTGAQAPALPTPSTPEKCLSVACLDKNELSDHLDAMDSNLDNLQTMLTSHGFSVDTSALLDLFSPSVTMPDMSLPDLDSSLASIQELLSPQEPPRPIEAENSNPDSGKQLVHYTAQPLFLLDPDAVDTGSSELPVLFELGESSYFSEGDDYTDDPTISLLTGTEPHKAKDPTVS

[9] = blockers of HIV-1 envelope-mediated cell-cell fusion – cherry-pick, dose response (AID 652057); assay type: functional, cell-based
[10] = off-target signal loss in HeLa-CEM21 co-culture – HeLa F-luc CTL cells, cherry-picked, counter-screen for HIV-1 Env fusion inhibitor project, dose response (AID 652040); assay type: functional, cell-based;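 note: potency for signal decrease marking cytotoxic or nonspecific inhibition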
[11] = blockers of HIV-1 ZM109 envelope-driven cell-cell fusion – HeLa effector, CEM target cells, luciferase, cherry-pick, dose response (AID 652058); assay type: functional, cell-based;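 note: luciferase signal from HIV-1 Env mediated cell-cell fusion of effector and target cells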
[12] = HIV-1 AD8 envelope cell-cell fusion blockers – cherry-pick, dose response (AID 652062); assay type: functional, cell-based;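 note: luciferase signal from cell-cell fusion driven by HIV-1 clade B AD8 Env; potency is for inhibitors of fusion seen as a drop in luminescence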
[13] = target: T3, Oxysterols receptor LXR-beta; assay type: functional, cell-based; remark: listed apart in the source
[14] = target: G-protein coupled receptor 55 (Homo sapiens, UniProt Q9Y2T6); experiment: selective activators of receptor GPR55 – imaging, U2OS cells, beta-arrestin-GFP redistribution, primary screen (AID 1961); assay type: functional
[15] = general cell-killing toxicity readout – plate reader, dry powder samples, cytotoxicity control for PAX8 inhibitor project, dose response (AID 743021); assay type: functional, cell-based
Paired box protein Pax-8 = Paired box protein Pax-8 (Homo sapiens, UniProt Q06710); experiment: PAX8 transcriptional activity inhibition in RMG-I – RMG-I cells, luciferase, cherry-pick, dose response (AID 687027); assay type: functional, cell-based;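 note: luciferase reporter driven by Pax8 target thyroperoxidase promoter measured by SteadyGlo luminescence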
[16] = OVCAR-3 cell viability loss – plate reader, dry powder samples, PAX8 inhibitor project, dose response (AID 743044); assay type: functional, cell-based
[17] = OVCAR8 cell viability loss – plate reader, dry powder samples, PAX8 project, dose response (AID 743197); assay type: functional, cell-based; conditions: OVCAR-8
[18] = Luminescence Cell-Based Dose Response HTS to Identify Inhibitors of 5'UTR Stem-Loop Driven Prion Protein mRNA Translation in H4 Neuroglioblastoma Cells. [Related pubchem assays: 1827 (Project Summary), 1813 (Primary HTS)]; assay type: functional
[19] = HEK-293T viability loss after treatment – luminescence, T-cell screen hits, cytotoxicity control for TCR NF-kB inhibitor project, dose response (AID 489026); assay type: functional, cell-based;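 note: cells exposed to compound about 14 hours before the viability readout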
[20] = luciferase reporter signal suppression in cells – H4 neuroglioma cells, luminescence, dose response (AID 1990); assay type: functional, cell-based
[21] = alpha-synuclein stem-loop luciferase translation blockers – H4 neuroglioma cells, luminescence, confirmation (AID 1988); assay type: functional, cell-based

Sequence of Paired box protein Pax-8 (Q06710 whole entry): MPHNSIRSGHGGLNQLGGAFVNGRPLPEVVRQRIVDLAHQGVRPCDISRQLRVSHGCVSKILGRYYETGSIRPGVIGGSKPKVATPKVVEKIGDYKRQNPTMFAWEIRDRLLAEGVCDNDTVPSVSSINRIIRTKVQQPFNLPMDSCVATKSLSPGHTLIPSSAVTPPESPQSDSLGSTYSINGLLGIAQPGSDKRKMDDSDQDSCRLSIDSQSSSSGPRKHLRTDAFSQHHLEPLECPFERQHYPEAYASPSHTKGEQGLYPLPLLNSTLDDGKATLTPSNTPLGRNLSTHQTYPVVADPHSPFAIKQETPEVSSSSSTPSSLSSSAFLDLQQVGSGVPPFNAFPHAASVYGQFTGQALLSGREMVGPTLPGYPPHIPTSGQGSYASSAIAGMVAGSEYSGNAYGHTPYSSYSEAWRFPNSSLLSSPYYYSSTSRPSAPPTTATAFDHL
Sequence of G-protein coupled receptor 55 (Q9Y2T6 whole entry): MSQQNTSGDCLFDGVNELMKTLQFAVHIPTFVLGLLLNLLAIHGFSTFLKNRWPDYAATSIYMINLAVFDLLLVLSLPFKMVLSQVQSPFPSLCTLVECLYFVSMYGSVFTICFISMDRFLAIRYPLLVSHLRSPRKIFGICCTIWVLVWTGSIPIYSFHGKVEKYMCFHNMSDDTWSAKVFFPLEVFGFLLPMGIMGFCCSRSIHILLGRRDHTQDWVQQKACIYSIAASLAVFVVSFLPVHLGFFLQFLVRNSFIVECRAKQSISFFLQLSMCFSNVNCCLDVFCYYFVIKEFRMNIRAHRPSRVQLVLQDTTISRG

## Cc1cccc(C(=O)NNC(=S)NC(=O)c2ccccc2)c1
[1]
  IC50: > 122 µM (inactive)
[2]
  CC50: 24 µM (active)
[3]
  EC50: 2.11 µM (active)
Vero
  CC50: > 25 µM (active)
[4]
  IC50: 7.59 µM (active)

## Nc1cccc2c1C(=O)N(CCOc1ccccc1F)C2=O
cells
  EC50: > 67.6 µM (inactive)
[5]
  EC50: > 67.6 µM (inactive)

## CCOC(=O)c1c(NC(=O)c2cccs2)sc(C)c1CC
[6]
  IC50: 30.4 µM (not active)

## c1ccc2c(c1)OCC(c1csc3ncnc(N4CCOCC4)c13)O2 (configuration not stated)
[7]
  IC50: > 100 µM (not active)
[8]
  EC50: 171 µM (active)
[9]
  AC50: 4.1 µM (active)
[10]
  AC50: 21.4 µM (active)
[11]
  AC50: 11.6 µM (active)
[12]
  AC50: 4.95 µM (active)

## Cc1c(-c2ccccn2)c(=O)[nH]n1-c1ccc(F)cc1
cells
  EC50: > 67.5 µM (inactive)
[5]
  EC50: > 67.5 µM (inactive)

## Cc1ccc(N=C2Nc3ccccc3CS2)cc1
[5]
  EC50: > 67.5 µM (inactive)

## Cc1ccc(NC2=Nc3ccccc3CS2)cc1
cells
  EC50: > 67.5 µM (inactive)

## OCCNc1ncnc2c1c(-c1ccccc1)c(-c1ccccc1)n2Cc1ccco1
[7]
  IC50: > 100 µM (not active)

## CCOC(=O)c1cnc(SCC(=O)Nc2sc(C)c(C)c2C#N)nc1N
[6]
  IC50: 18.7 µM (active)

## CC(C)C(OC(=O)c1cccs1)C(=O)NCc1ccco1 (configuration not stated)
[7]
  IC50: > 100 µM (not active)

## CC(C)C[C@H](NC(=O)OCC1c2ccccc2-c2ccccc21)C(=O)O
[13]
  EC50: > 67.5 µM (inactive)

## O=C(NCc1ccco1)c1cc2nc(-c3ccc4c(c3)OCO4)cc(C(F)(F)F)n2n1
[6]
  IC50: 20.4 µM (active)
[14]
  EC50: > 32 µM (inactive)

## C[C@@H]1CN([C@@H](C)CO)C(=O)c2cc(NC(=O)Nc3ccc(F)cc3)ccc2O[C@@H](C)CCCCO[C@H]1CN(C)Cc1ccc(C(F)(F)F)cc1
[15]
  AC50: 1.84 µM (active)
Paired box protein Pax-8
  AC50: 6.74 µM (active)
[16]
  AC50: 16.3 µM (active)
[17]
  AC50: 51.7 µM (active)

## C[C@H](CO)N1C[C@H](C)[C@H](CN(C)S(=O)(=O)c2ccc(Cl)cc2)OCCCC[C@H](C)Oc2ccc(NC(=O)Nc3ccc(C(F)(F)F)cc3)cc2C1=O
[15]
  AC50: 34.6 µM (active)
Paired box protein Pax-8
  AC50: 4.52 µM (active)
[16]
  AC50: 60 µM (active)

## COc1ccc(/C=c2/sc3n(c2=O)C(c2ccccc2OC)C2=C(N=3)c3ccccc3CC2)cc1O (configuration not stated)
[15]
  AC50: 52 µM (active)
Paired box protein Pax-8
  AC50: 2.28 µM (active)
[18]
  EC50: 13.9 µM (active)
[19]
  IC50: > 80 µM (inactive)
[20]
  EC50: 0.112 µM (active)
[21]
  EC50: 0.403 µM (active)
